Measured values reported in patent EP1095657A2, “Compositions for the regulation of cytokine activity” (priority 1992, dated 1994).

Columns and labels:
[1] = system: experimental DTH reaction in mice; assay: In vivo bioassay of inhibition of experimental DTH reactivity (oxazolone ear swelling); parameters: species or system mice (BALB/c or CD1); key to effect on the experimental DTH reaction (monosaccharides): "N.E." indicates that no effect was observed at the tested dosage range of 0.000004-4 µg/gm mouse; conditions: for DTH: at that dose, value in parentheses in the cell taken as positive control, not reported; for effect on the experimental DTH reaction (monosaccharides): dosage range of 0.000004-4 µg/gm mouse
Description: Groups of inbred BALB/c (Jackson Laboratories, Bar Harbor, ME) or of outbred CD1 (Weizmann Institute Animal Breeding Center, Rehovot, Israel) mice are sensitized on the shaved abdominal skin with 100 µl of 2% oxazolone (OX) in acetone/olive oil (4/1, v/v) applied topically. DTH sensitivity is elicited 5 days later as follows: mice are challenged with 20 µl of 0.5% OX (10 µl administered topically to each side of the ear) in acetone/olive oil. A constant area of the ear is measured immediately before challenge and 24 and 48 h later with a Mitutoyo engineer's micrometer. The individual measuring ear swelling is blinded to the identity of the groups of mice. The increment (△) of ear swelling is expressed as the mean in units of 10^-2 mm or 10^-4 inch (+SE) depending on the micrometer that is used. Percent inhibition is calculated as follows: %Inhibition= 1-((Treated-negative control)/(positive control-negative control)) [formula]
Mice are treated with LMWH as in Example 5.1, injected the day before primary sensitization to OX. On the fifth day after sensitization to OX, the mice are challenged to induce a DTH reaction, as described above.
The positive control is the DTH reaction elicited in immunized mice in the absence of treatment with LMWH. The negative control is the background swelling produced by the antigen in naive (non-immunized) mice.
BALB/c mice (at least 5 mice per group) were sensitized on the shaved abdomen with 3% 4-ethoxymethylene-2-phenyl oxazolone (OX; BDH Chemicals, GB) in acetone/olive oil applied topically. DTH sensitivity was elicited 5 days later as follows. Mice were challenged with 0.5% OX in acetone/olive oil. The ear was measured immediately before challenge and 24 h later with Mitutoyo engineer's micrometer (Japan). The individual measuring the swelling of the ear was blinded to the identity of the groups of mice. To interfere with DTH response, the low molecular weight immuno-regulatory fractions, diluted in PBS, were administrated subcutaneously into the back of the treated mice at the indicated time schedules and concentrations. Treated mice were inspected during and after (>2 months) the treatment and no major side-effects were observed clinically.
In particular, CD1 mice (available from the Weizmann Institute Animal Breeding Center, Rehovot, Israel), 4-12 mice per group, were treated as described in Section 5.2 or 6.8.

[2] = system: adjuvant arthritis in Lewis rats; assay: Adjuvant arthritis (AA) in rats; assay type: in vivo
[3] = system: secretion of active TNF-α by activated human CD4+ T cells; assay: Bioassay of TNF-α activity using human CD4+ T cells derived from PBLs (human PBL bioassay); conditions: for Bioassay of TNF Activity, in words: conc range of 1 µg/ml - 0.01 pg/ml, inconsistent = not the same result in all three bioassays; for "R" value: zero assigned where no effect is observed
[4] = CD1 mice, s.c., higher effective dose range
[5] = CD1 mice, s.c., inhibitory, 0 = no effect

## N[C@H]1C(O)O[C@H](CO)[C@H](O)[C@@H]1O (stereo partly drawn) [GalN, D-Galactosamine]
[1]; CD1 mice, s.c.
  Inhmax: 50%
[1]; CD1 mice, s.c., dose giving Inhmax in the higher effective dose range
  Dose: 0.12 µg/gm
[1]; [4]
  "R" value: 5.58 x 10^2 % x (µg/gm)^-1
  Inhmax: 67%
[1]; [5]
  "R" value: 1.25 x 10^6 % x (μg/gm)^-1
[2]; s.c. weekly, different dosages (FIG. 38C)
  effect on AA, in words: inhibitory effects but to a much lesser degree than that shown by glucosamine

## O=S(=O)(O)N[C@H]1C(O)O[C@H](CO)[C@@H](O)[C@@H]1OS(=O)(=O)O (stereo partly drawn) [GlcN-2,3S, D-Glucosamine-2,3-disulfate]
[1]; CD1 mice, s.c.
  Inhmax: 68%
  DTH: 6.3 ± 1 (19.7 ± 1.2) 10^-2 mm
[1]; [5]
  "R" value: 5.67 x 10^4 % x (μg/gm)^-1

## O=S(=O)(O)N[C@H]1C(O)O[C@H](COS(=O)(=O)O)[C@@H](O)[C@@H]1O (stereo partly drawn) [GlcN-2,6S, D-Glucosamine-2,6-disulfate]
[1]; CD1 mice, s.c.
  Inhmax: 61%
  DTH: 7.7 ± 1 (19.7 ± 1.2) 10^-2 mm

## O=S(=O)(O)N[C@H]1C(O)O[C@H](CO)[C@@H](O)[C@@H]1O (stereo partly drawn) [GlcN-2S, D-Glucosamine-2-N-sulfate]
[1]; CD1 mice, s.c.
  effect on the experimental DTH reaction (monosaccharides): N.E.
[1]; [5]
  "R" value: 0 % x (μg/gm)^-1

## N[C@H]1C(O)O[C@H](CO)[C@@H](O)[C@@H]1OS(=O)(=O)O (stereo partly drawn) [GlcN-3S, D-Glucosamine-3-sulfate]
[1]; CD1 mice, s.c.
  effect on the experimental DTH reaction (monosaccharides): N.E.
[1]; [5]
  "R" value: 0 % x (μg/gm)^-1

## N[C@H]1C(O)O[C@H](COS(=O)(=O)O)[C@@H](O)[C@@H]1O (stereo partly drawn) [GlcN-6S, D-Glucosamine-6-sulfate]
[1]; CD1 mice, s.c.
  effect on the experimental DTH reaction (monosaccharides): N.E.
[1]; [5]
  "R" value: 0 % x (μg/gm)^-1

## CC(=O)N[C@H]1C(O)O[C@H](CO)[C@@H](O[C@@H]2OC(C(=O)O)=C[C@H](O)[C@H]2O)[C@@H]1O (stereo partly drawn) [H-0895, 4-deoxy-4-en-iduronic acid-(α-1,4)-2-deoxy-2-N-acetylglucosamine]
[1]; CD1 mice, s.c.
  Inhmax column, value printed with +: augmentation of the DTH swelling: +92%
  dose giving the augmenting effect on swelling: about 1.2 picograms disaccharide per gram mouse
  DTH: 37.3 ± 0.7 (18.9 ± 0.7) 10^-2 mm
[2]; 0.1 and 0.4 ng/rat s.c. weekly, day 24
  AA score against control, in words: not substantially different from control levels
[2]; 0.1 and 0.4 ng/rat s.c. weekly, within about 2 weeks of induction
  effect on AA, in words: increased level of AA development
[3]
  Bioassay of TNF Activity, in words: Inconsistent

## O=C(O)C1=C[C@H](O)[C@@H](O)[C@H](O[C@H]2[C@H](O)[C@@H](NS(=O)(=O)O)C(O)O[C@@H]2CO)O1 (stereo partly shown) [H-1145]
[1]; CD1 mice, s.c.
  effect on the experimental DTH reaction, in words (disaccharide markers): neutral and N.E.
[1]; [5]
  "R" value: 0 % x (μg/gm)^-1

## CC(=O)N[C@H]1C(O)O[C@H](COS(=O)(=O)O)[C@@H](O[C@@H]2OC(C(=O)O)=C[C@H](O)[C@H]2O)[C@@H]1O (stereo partly shown) [H-8642]
[1]; CD1 mice, s.c.
  effect on the experimental DTH reaction, in words (disaccharide markers): N.E.
[1]; [5]
  "R" value: 0 % x (μg/gm)^-1
[3]
  Bioassay of TNF Activity, in words: Inconsistent

## CC(=O)N[C@H]1C(O)O[C@H](CO)[C@@H](O[C@@H]2OC(C(=O)O)=C[C@H](O)[C@H]2OS(=O)(=O)O)[C@@H]1O (stereo partly shown) [H-8767]
[1]; CD1 mice, s.c.
  effect on the experimental DTH reaction, in words (disaccharide markers): N.E.
[1]; [5]
  "R" value: 0 % x (μg/gm)^-1
[3]
  Bioassay of TNF Activity, in words: Inconsistent

## N[C@H]1C(O)O[C@H](COS(=O)(=O)O)[C@@H](O[C@@H]2OC(C(=O)O)=C[C@H](O)[C@H]2OS(=O)(=O)O)[C@@H]1O (stereo partly shown) [H-8892]
[1]; CD1 mice, s.c.
  effect on the experimental DTH reaction, in words (disaccharide markers): neutral and N.E.
[1]; [5]
  "R" value: 0 % x (μg/gm)^-1
[3]
  Bioassay of TNF Activity, in words: No effect
  "R" value: 0 % x (pg/ml)^-1

## N[C@H]1C(O)O[C@H](COS(=O)(=O)O)[C@@H](O[C@@H]2OC(C(=O)O)=C[C@H](O)[C@H]2O)[C@@H]1O (stereo partly shown) [H-9017]
[1]; CD1 mice, s.c.
  effect on the experimental DTH reaction, in words (disaccharide markers): neutral and N.E.
[1]; [5]
  "R" value: 0 % x (μg/gm)^-1
[3]
  Bioassay of TNF Activity, in words: No effect
  "R" value: 0 % x (pg/ml)^-1

## N[C@H]1C(O)O[C@H](CO)[C@@H](O[C@@H]2OC(C(=O)O)=C[C@H](O)[C@H]2OS(=O)(=O)O)[C@@H]1O (stereo partly shown) [H-9142]
[1]; CD1 mice, s.c.
  effect on the experimental DTH reaction, in words (disaccharide markers): neutral and N.E.
[1]; [5]
  "R" value: 0 % x (μg/gm)^-1
[3]
  Bioassay of TNF Activity, in words: Inconsistent

## O=C(O)C1=C[C@H](O)[C@@H](OS(=O)(=O)O)[C@H](O[C@H]2[C@H](O)[C@@H](NS(=O)(=O)O)C(O)O[C@@H]2COS(=O)(=O)O)O1 (stereo partly drawn) [H-9267, 2-O-sulfate-4-deoxy-4-en-iduronic acid-(α-1,4)-2-deoxy-2-N-sulfate-6-O-sulfateglucosamine]
[1]; CD1 mice, s.c.
  Inhmax: 64%
  DTH: 7.2 ± 1 (19.6 ± 1.2) 10^-2 mm
[1]; [5]
  "R" value: 1.60 x 10^5 % x (μg/gm)^-1
[1]; at the dose giving Inhmax, subcutaneous
  DTH Response: 3.5 ± 1 10^-2mm
[1]; dose giving Inhmax, subcutaneous
  Dose: 0.0005 µg/gm mouse
[1]; inhibitory, maximum % inhibition of DTH divided by the dose giving it, s.c., 0 = no effect
  "R" value: 160,000 % x (µg/gm)^-1
[1]; maximum inhibition of DTH, subcutaneous
  Inhmax: 80%
[3]
  Bioassay of TNF Activity, in words: Inconsistent

## CC(=O)N[C@H]1C(O)O[C@H](COS(=O)(=O)O)[C@@H](O[C@@H]2OC(C(=O)O)=C[C@H](O)[C@H]2OS(=O)(=O)O)[C@@H]1O (stereo partly drawn) [H-9517, 2-O-sulfate-4-deoxy-4-en-iduronic acid-(α-1,4)-2-deoxy-2-N-acetyl-6-O-sulfateglucosamine]
[1]; CD1 mice, s.c.
  Inhmax: 62%
  DTH: 7.6 ± 1 (20.4 ± 0.7) 10^-2 mm
[1]; [5]
  "R" value: 1.55 x 10^6 % x (μg/gm)^-1
[3]
  Bioassay of TNF Activity, in words: Inconsistent^c

## CC(=O)N[C@H]1C(O)O[C@H](CO)[C@@H](O)[C@@H]1O (stereo partly shown) [NAc-GlcN, N-Acetylglucosamine]
[1]; CD1 mice, s.c.
  effect on the experimental DTH reaction (monosaccharides): N.E.
[1]; [5]
  "R" value: 0 % x (μg/gm)^-1

## C[C@@H]1C[C@H]2[C@@H]3CCC4=CC(=O)C=C[C@]4(C)[C@@]3(F)[C@@H](O)C[C@]2(C)[C@@]1(O)C(=O)COP(=O)(O)O [dexamethasone phosphate]
[2]; 100 µg per rat s.c. daily from day 12
  course of AA after treatment has ended, in words: suffered a relapse
[2]; weekly s.c. from day 12 to day 26, 120 ng disaccharide or 100 µg dexamethasone phosphate per rat
  effect on AA at 30 days post-induction, in words: only a moderate reduction in the severity of the AA score
